Laboratory results taken from patent US20230025510A1, “BIARYL ETHER-TYPE QUINAZOLINE DERIVATIVES” (DAIICHI SANKYO COMPANY, LIMITED, priority 2018, published 2023).

Key:
Assay type in all cases: cell-based
[1] = system: Ba/F3-EGFR ins. ASV cells; assay: Cell proliferation suppression test (CellTiter-Glo, GI50), Ba/F3-EGFR ins. ASV; details: Mus musculus, 72 h, 3 days, N=4
How it was run: (§1)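 Ba/F3 lines in RPMI 1640/10% FBS without puromycin; IL-3 5 ng/mL added for Mock, EGF 100 ng/mL for EGFR WT. Cells treated 3 days at 37 °C, 5% CO2; ATP measured by CellTiter-Glo 2.0 on day 0 and day 3 (N=4). GI50 is the concentration inhibiting 50% of day 0–3 proliferation.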

[2] = system: Ba/F3-EGFR ins. SVD cells; assay: Cell proliferation suppression test (CellTiter-Glo, GI50), Ba/F3-EGFR ins. SVD; details: Mus musculus, 72 h, 3 days, N=4
How it was run: as §1

[3] = system: Ba/F3-Mock cells; assay: Cell proliferation suppression test (CellTiter-Glo, GI50), Ba/F3-Mock; details: Mus musculus, BaF3, 72 h, 5 ng/mL IL-3, 3 days, N=4
How it was run: as §1

[4] = system: Ba/F3-EGFR WT cells; assay: Cell proliferation suppression test (CellTiter-Glo, GI50), Ba/F3-EGFR WT; details: Mus musculus, 72 h, 100 ng/mL EGF, 3 days, N=4
How it was run: as §1

Structure (SMILES)	GI50 [1]	GI50 [2]	GI50 [3]	GI50 [4]
COc1cc2ncnc(Nc3ccc(Oc4nn(CC(=O)NC(C)(C)C)cc4F)cc3Cl)c2cc1NC(=O)/C=C/CN1CC[C@H](F)C1 [Example 57, (2E)-N-{4-[4-({1-[2-(tert-Butylamino)-2-oxoethyl]-4-fluoro-1H-pyrazol-3-yl}oxy)-2-chloroanilino]-7-methoxyquinazolin-6-yl}-4-[(3S)-3-fluoropyrrolidin-1-yl]but-2-enamide]	8.5 nM	4.1 nM	5090 nM	369 nM
COc1cc2ncnc(Nc3ccc(Oc4nn(CC(=O)NC(C)(C)C)cc4F)cc3F)c2cc1NC(=O)/C=C/CN1CC(F)C1 [Example 59, (2E)-N-{4-[4-({1-[2-(tert-Butylamino)-2-oxoethyl]-4-fluoro-1H-pyrazol-3-yl}oxy)-2-fluoroanilino]-7-methoxyquinazolin-6-yl}-4-(3-fluoroazetidin-1-yl)but-2-enamide]	11.9 nM	7.4 nM	> 10000 nM	468 nM
COc1cc2ncnc(Nc3ccc(Oc4nn(CC(=O)NC(C)(C)C)cc4F)cc3F)c2cc1NC(=O)/C=C/CN1CC(OC)C1 [Example 60, (2E)-N-{4-[4-({1-[2-(tert-Butylamino)-2-oxoethyl]-4-fluoro-1H-pyrazol-3-yl}oxy)-2-fluoroanilino]-7-methoxyquinazolin-6-yl}-4-(3-methoxyazetidin-1-yl)but-2-enamide]	11.9 nM	10.7 nM	6030 nM	497 nM
COc1cc2ncnc(Nc3ccc(Oc4nc(CC(=O)NC(C)(C)C)cs4)cc3F)c2cc1NC(=O)/C=C/CN1CC[C@@H](OC)C1 [Example 61, (2E)-N-{4-[4-({4-[2-(tert-Butylamino)-2-oxoethyl]-1,3-thiazol-2-yl}oxy)-2-fluoroanilino]-7-methoxyquinazolin-6-yl}-4-[(3R)-3-methoxypyrrolidin-1-yl]but-2-enamide]	25.6 nM	88.1 nM	3120 nM	731 nM
COc1cc2ncnc(Nc3ccc(Oc4nc(-c5nnc(C6CC6)o5)cs4)cc3F)c2cc1NC(=O)/C=C/CN1CC[C@@H](F)C1 [Example 62, (2E)-N-[4-(4-{[4-(5-Cyclopropyl-1,3,4-oxadiazol-2-yl)-1,3-thiazol-2-yl]oxy}-2-fluoroanilino)-7-methoxyquinazolin-6-yl]-4-[(3R)-3-fluoropyrrolidin-1-yl]but-2-enamide]	43.9 nM	210 nM	1490 nM	733 nM
COc1cc2ncnc(Nc3ccc(Oc4nc(-c5nnc(C6CC6)o5)cs4)cc3F)c2cc1NC(=O)/C=C/CN1CC[C@@H](OC)C1 [Example 63, (2E)-N-[4-(4-{[4-(5-Cyclopropyl-1,3,4-oxadiazol-2-yl)-1,3-thiazol-2-yl]oxy}-2-fluoroanilino)-7-methoxyquinazolin-6-yl]-4-[(3R)-3-methoxypyrrolidin-1-yl]but-2-enamide]	49.5 nM	81.8 nM	1060 nM	129 nM
